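All cell lines were grown in 96-well plates and treated with compound for 48 hours. Here, GI50 denotes the concentration required for 50% inhibition of growth. TGI is the concentration that stops growth completely.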 Where a SMILES comes first, the peptide text is derived from it. The star is where a group is joined. Boc = CC(C)(C)OC(=O)*; Bn = c1ccc(C*)cc1
Key:
Assay in all cases: NCI anticancer screen, dose series, 48 h
[1] = tested on: UACC-62 melanoma
[2] = tested on: M14 melanoma
[3] = tested on: NCI/ADR-RES ovarian
[4] = tested on: NCI-H522 lung
[5] = tested on: HL-60(TB) leukemia
[6] = tested on: HCT-116 colon
[7] = tested on: LOX IMVI melanoma
[8] = tested on: 786-0 renal
[9] = tested on: OVCAR-5 ovarian
[10] = tested on: SNB-75 CNS

## C[C@H]1[C@H]2[C@H]3CC[C@@H]4[C@@]5(C)CC[C@H](O)C(C)(C)[C@@H]5CC[C@@]4(C)[C@]3(C)C[C@H](O)[C@@]2(C)C[C@H]2O[C@]21C
[1]
  TGI: 76 µM
[2]
  TGI: 73.6 µM
[3]
  TGI: 51.8 µM
[4]
  TGI: 48.9 µM
[5]
  TGI: > 100 µM
[6]
  TGI: 36.3 µM
[7]
  TGI: 39.1 µM
[8]
  TGI: 45.1 µM
[9]
  TGI: 58.4 µM

## NS(=O)(=O)c1ccc(/C=C/c2ccc(O)c(O)c2)cc1
[1]
  GI50: 23.3 µM
  TGI: 42.2 µM
[2]
  TGI: > 100 µM
[3]
  TGI: 71.7 µM
[4]
  GI50: 2.25 µM
  TGI: 4.79 µM
[5]
  GI50: 16.3 µM
  TGI: > 100 µM
[6]
  TGI: > 100 µM
[7]
  GI50: 29.9 µM
  TGI: > 100 µM
[8]
  TGI: > 100 µM
[10]
  TGI: 58.3 µM
[9]
  TGI: > 100 µM

## O=C(N/N=C(\c1ccccc1)c1ccccn1)NC1CCCCC1
[1]
  TGI: > 100 µM
[2]
  TGI: > 100 µM
[4]
  TGI: > 100 µM
[6]
  TGI: > 100 µM
[7]
  TGI: 51.7 µM
[8]
  TGI: > 100 µM
[10]
  TGI: > 100 µM
[9]
  TGI: > 100 µM

## Cc1ccc(-c2c(C#N)c(-c3ccc(C)cc3)n(NS(=O)(=O)c3ccccc3)c(=O)c2C#N)cc1
[1]
  TGI: > 100 µM
[2]
  TGI: > 100 µM
[3]
  TGI: > 100 µM
[4]
  TGI: > 100 µM
[6]
  TGI: > 100 µM
[7]
  TGI: > 100 µM
[8]
  TGI: > 100 µM
[10]
  TGI: > 100 µM
[9]
  TGI: > 100 µM

## CN1CCc2c([nH]c3ccccc23)C1
[1]
  TGI: > 100 µM
[2]
  TGI: > 100 µM
[3]
  TGI: > 100 µM
[4]
  TGI: > 100 µM
[5]
  TGI: > 100 µM
[6]
  TGI: > 100 µM
[7]
  TGI: > 100 µM
[8]
  TGI: > 100 µM
[10]
  TGI: > 100 µM
[9]
  TGI: > 100 µM

## COC(=O)C(CC(C)C)NC(=O)C(C)NC(=O)C(Cc1ccc(OCc2ccccc2)cc1)NC(=O)C(COCc1ccccc1)NC(=O)OC(C)(C)C (centres undefined) (Boc-S(Bn)Y(Bn)AL-OMe; configuration not given here)
[1]
  TGI: > 100 µM
[2]
  TGI: > 100 µM
[3]
  TGI: > 100 µM
[4]
  TGI: > 100 µM
[5]
  TGI: > 100 µM
[6]
  TGI: > 100 µM
[7]
  TGI: > 100 µM
[8]
  TGI: > 100 µM
[10]
  TGI: > 100 µM
[9]
  TGI: > 100 µM

## Cc1ccc2c(c1)C(=S)N1CSCC1c1nncn1-2 (centres undefined)
[1]
  TGI: > 100 µM
[2]
  TGI: > 100 µM
[3]
  TGI: > 100 µM
[4]
  TGI: > 100 µM
[6]
  TGI: > 100 µM
[7]
  TGI: > 100 µM
[8]
  TGI: > 100 µM
[10]
  TGI: > 100 µM
[9]
  TGI: > 100 µM

## C=CCCON(C(=O)OC(C)(C)C)C(C)(C)C
[1]
  TGI: > 100 µM
[2]
  TGI: > 100 µM
[3]
  TGI: > 100 µM
[4]
  TGI: > 100 µM
[5]
  TGI: > 100 µM
[6]
  TGI: > 100 µM
[7]
  TGI: > 100 µM
[8]
  TGI: > 100 µM
[10]
  TGI: > 100 µM
[9]
  TGI: > 100 µM

## O=C(O)C(O)C(O)C(O)C(O)c1nc2ccccc2s1 (centres undefined)
[1]
  TGI: 28.8 µM
[2]
  TGI: 45.7 µM
[3]
  TGI: > 100 µM
[4]
  TGI: 27.1 µM
[5]
  TGI: 46 µM
[6]
  TGI: 30.1 µM
[7]
  TGI: 36.7 µM
[8]
  TGI: 30.4 µM
[10]
  TGI: 34.7 µM
[9]
  TGI: 72.9 µM

## c1ccc(N=C(N2CCCC2)N(CCN2CCCC2)c2ccccc2)cc1
[1]
  TGI: > 100 µM
[2]
  TGI: 27 µM
[3]
  TGI: > 100 µM
[4]
  TGI: > 100 µM
[5]
  TGI: > 100 µM
[6]
  TGI: > 100 µM
[7]
  TGI: > 100 µM
[8]
  TGI: > 100 µM
[10]
  TGI: 78 µM
[9]
  TGI: > 100 µM

— PubChem BioAssay (NCI)
